“Also recorded” adds a separate entry of the source. Read-outs that look alike come from different tables or passages of the source.
What was measured:
[1] = test system: A/Hong Kong/8/68 (H3N2); conditions: for SI50 HK: ratio of CC50 to EC50; for SI90 HK: ratio of CC10 to EC90
[2] = Cytotoxicity to mock-infected MDCK cells (MTT); conditions: dog, mock-infected MDCK cells
[3] = test system: MDCK cells; experiment: Cytotoxicity to mock-infected MDCK cells (MTT); conditions: for CC10: mock-infected MDCK cells, day 3, MTT, concentration inhibiting cell viability by 10%
[4] = test system: A/Hong Kong/8/68 (H3N2); experiment: microbe, parasite or virus in culture; conditions: Influenza A virus, H3N2, MDCK, 72 h; for EC50: read-out: EC50 HK; for EC90: read-out: EC90 HK; for viability at 10 µM: read-out: viability of HK-infected cells in library screening
[5] = test system: influenza A and B viruses; experiment: CPE reduction antiviral assay, values summarised over influenza strains PR8, HK and Lee; format: cell-based, influenza virus; conditions: for SI90 against influenza viruses / SI50 against influenza viruses: over PR8, HK and Lee; for EC50: read-out: EC50 against influenza viruses; for SI50 against influenza viruses: CC50/EC50
[6] = test system: A/Puerto Rico/8/34 (H1N1); conditions: for SI90 PR8: ratio of CC10 to EC90; for SI50 PR8: ratio of CC50 to EC50
[7] = physchem; conditions: aqueous buffer
[8] = test system: A/Puerto Rico/8/34 (H1N1); experiment: microbe, parasite or virus in culture; conditions: Influenza A virus, 72 h; for EC50 / EC90: H1N1 / PR8, MDCK; for EC50: read-out: EC50 PR8; for EC90: read-out: EC90 PR8; for viability at 10 µM: H1N1|PR8, MDCK, read-out: viability of PR8-infected cells in library screening
[9] = in vitro; conditions: dog
[10] = test system: B/Lee/40; experiment: CPE reduction antiviral assay in Lee-infected MDCK cells (MTT); format: cell-based, influenza B virus; conditions: for EC50: viability of infected cells to 50%; for EC90: read-out: EC90 Lee; for SI90 Lee: ratio of CC10 to EC90; for SI50 Lee: ratio of CC50 to EC50
[11] = test system: PR8 virus; format: cell-based, influenza A virus
[12] = test system: PR8 virus; format: cell-based, influenza A virus; remark: listed apart in the source
[13] = biological target: polymerase activity of influenza A virus PR8 (Influenza A virus, UniProt P03431); format: cell-based; conditions: 11, 33 and 100 μM, 72 h time course
[14] = in vitro; conditions: human
[15] = test system: SARS-CoV-2; experiment: Anti-SARS-CoV-2 immunofluorescence assay (anti-S) in Calu-3 cells; format: cell-based; conditions: for SI SARS-CoV-2: ratio of CC50 to EC50
[16] = test system: Calu-3 cells; experiment: Cytotoxicity to mock-infected Calu-3 cells (MTT); conditions: 100 μM
[17] = test system: MDCK cells
[18] = male, BALB/c, mouse, in vivo, ip, 5 mg/kg, 30 min
[19] = mouse, microsomes
[20] = clinical study; cited from earlier work
[21] = test system: Caco-2 human colorectal adenocarcinoma cells; parameters: method as in PMID 35310327; conditions: 0.1 μM to 1 mM, 3 day incubation; cited from earlier work
[22] = Influenza A virus, PR8, MDCK, span over PR8, HK and Lee, MDCK, read-out: EC90 against influenza viruses
[23] = span over PR8, HK and Lee, MDCK, read-out: EC90 against influenza viruses
[24] = Influenza B virus, MDCK, 72 h, read-out: EC50 Lee, MDCK, MOI 0.001, day 3
[25] = Influenza B virus, MDCK, 72 h, MDCK, MOI 0.001, day 3, read-out: EC50 Lee
[26] = Influenza A virus, span over PR8, HK and Lee, MDCK

polymerase activity of influenza A virus PR8, sequence (P03431 whole entry, looked up): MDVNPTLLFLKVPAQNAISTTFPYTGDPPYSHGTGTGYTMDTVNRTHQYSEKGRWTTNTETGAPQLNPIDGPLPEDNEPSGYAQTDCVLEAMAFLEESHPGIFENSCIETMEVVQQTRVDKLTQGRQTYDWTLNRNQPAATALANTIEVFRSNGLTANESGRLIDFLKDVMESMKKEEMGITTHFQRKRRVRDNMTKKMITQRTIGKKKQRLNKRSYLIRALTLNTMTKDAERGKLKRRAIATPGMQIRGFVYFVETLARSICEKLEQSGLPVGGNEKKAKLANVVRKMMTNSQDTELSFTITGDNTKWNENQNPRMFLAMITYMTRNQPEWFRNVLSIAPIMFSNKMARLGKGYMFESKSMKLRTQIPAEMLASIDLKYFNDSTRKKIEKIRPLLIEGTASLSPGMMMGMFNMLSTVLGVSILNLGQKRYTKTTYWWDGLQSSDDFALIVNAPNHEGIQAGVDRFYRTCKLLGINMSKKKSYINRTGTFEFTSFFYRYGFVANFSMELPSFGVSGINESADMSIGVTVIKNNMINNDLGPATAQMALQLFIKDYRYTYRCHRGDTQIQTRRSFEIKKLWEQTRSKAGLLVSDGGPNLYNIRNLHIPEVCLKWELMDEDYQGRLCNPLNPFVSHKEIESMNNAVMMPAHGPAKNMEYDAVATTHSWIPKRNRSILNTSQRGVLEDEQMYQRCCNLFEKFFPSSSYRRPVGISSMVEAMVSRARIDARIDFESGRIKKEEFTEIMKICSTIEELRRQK

For `NC12CC3CC(CC(C3)C1)C2` [Amantadine, reference compound], the “SI50 HK” value [1] was over 19.5, the CC50 at 3 days [2] was over 300 µM and the CC10 [3] was 91.0 ± 34.5 µM. It also gave an EC50 [4] of 15.4 ± 5.1 µM.
For `O=C(Nc1ccn([C@@H]2O[C@H](CO)[C@@H](O)C2(F)F)c(=O)n1)c1cccc(-c2ccccc2)n1` [Compound 2e], the “SI90 HK” value [1] was over 20.7, the EC90 [5, 22] was 10.7 to 34.3 µM and the “SI90 against influenza viruses” value ([5]; CC10/EC90) was over 8.7. The EC90 [5, 23] was 14.5 to 34.3 µM, the “SI90 PR8” value [6] was over 18.1 and the “SI50 PR8” value [6] was over 73.3. It also gave a solubility [7] of under 500 µg/mL, an EC50 [8] of 4.1 ± 0.4 µM and an EC90 [8] of 16.6 ± 8.6 µM. For the same compound, the CC50 at 3 days [9] was over 300 µM, the viability at 3 days, 300 µM [9] was over 90% and the EC50 [10, 24] was 3.39 ± 0.1 µM. The EC90 ([10]; Influenza B virus, MDCK, 72 h) was 34.3 ± 4.3 µM, the “SI90 Lee” value [10] was over 8.7 and the “SI50 Lee” value [10] was over 88.5. The “reduction of viral NP protein expression” value [11] was “in a dose-dependent manner”, the “reduction of viral RNA copies” value [12] was “in a dose-dependent manner” and the “inhibition of viral polymerase activity (EGFP expression)” value [13] was “Inhibition of influenza A viral polymerase activity”. For the same compound, the EC50 [4] was 5 ± 0.1 µM and the EC90 [4] was 14.5 ± 0.4 µM.
In the case of `Nc1ccc(C(=O)Nc2ccn([C@@H]3O[C@H](CO)[C@@H](O)C3(F)F)c(=O)n2)nc1` [Compound 2h], the “SI90 HK” value [1] is reported as over 26.3, the “SI50 HK” value [1] is reported as over 59.5 and the EC90 [5, 22] is reported as 10.7 to 34.3 µM. The “SI90 against influenza viruses” value ([5]; CC10/EC90) was over 8.7, the EC90 [5, 23] was 11.4 to 15.9 µM and the “SI90 PR8” value [6] was over 24.5. The “SI50 PR8” value [6] was over 47.2, the CC50 at 2 days [14] was over 100 µM and the “reduction of the viral S protein (immunofluorescence)” value ([15]; 1.2, 3.7, 11.1 and 33.3 μM, 2 days) was “in a dose-dependent manner”. The EC50 ([15]; Severe acute respiratory syndrome coronavirus 2, 48 h, Calu-3, MOI 0.05, 2 days) was 0.46 µM, the “SI SARS-CoV-2” value [15] was over 217.4 and the solubility [7] was at least 2000 µg/mL. The EC50 [8] was 6.4 ± 0.6 µM, the EC90 [8] was 12.2 ± 1 µM and the cell death [16] was “about 20%”. For the same compound, the CC50 at 3 days [9] was over 300 µM, the viability at 3 days, 300 µM [9] was over 90% and the “reduction of cytotoxicity relative to gemcitabine” value ([17]; dog, 3 days) was “over 60 fold”. The “share of 2h converted to gemcitabine” value [18] was 17.5%, the EC90 ([10]; Influenza B virus, 72 h, MDCK, MOI 0.001, day 3, viability of infected cells to 90%) was 15.9 ± 1.7 µM and the EC50 [10, 25] was 4.1 ± 0.4 µM. For the same compound, the “SI90 Lee” value [10] was over 18.8, the “SI50 Lee” value [10] was over 73.1 and the “stability in a microsomal condition in vitro” value [19] was “much more stable”. The “reduction of viral NP protein expression” value [11] was “in a dose-dependent manner”, the “reduction of viral RNA copies” value [12] was “in a dose-dependent manner” and the “inhibition of viral polymerase activity (EGFP expression)” value [13] was “potently inhibited viral polymerase activity in a dose-dependent manner”. The EC50 [4] was 5 ± 0.3 µM and the EC90 [4] was 11.4 ± 0.6 µM.
In the case of `O=C(Nc1ccn([C@@H]2O[C@H](CO)[C@@H](O)C2(F)F)c(=O)n1)c1cccnc1` [Compound 3a], the “SI90 HK” value [1] is reported as 4.2, the “SI50 HK” value [1] is reported as over 48.4 and the EC90 [5, 22] is reported as 1.4 to 16.9 µM. For the same compound, the EC90 ([5]; Influenza A virus, PR8, PR8 and HK only, read-out: EC90 against influenza A viruses) was 10.6 to 16.9 µM, the EC50 [5, 26] was 3.1 to 6.2 µM and the “SI90 against influenza A viruses” value ([5]; PR8 and HK only, CC10/EC90) was 2.7–4.2. For the same compound, the “concentration of maximal antiviral efficacy” value ([5]; dose-response, MDCK) was about 33 µM, the “SI50 against influenza viruses” value [5] was over 48.4 and the “SI90 PR8” value [6] was 2.7. For the same compound, the “SI50 PR8” value [6] was over 52.1, the EC50 [8] was 5.8 ± 0.9 µM and the EC90 [8] was 16.9 ± 7.2 µM. The viability at 10 µM [8] was over 50%, the CC50 at 3 days [9] was over 300 µM and the “reduction of cytotoxicity relative to gemcitabine” value [17] was “ninefold”. For the same compound, the EC50 [10, 25] was 3.1 ± 0.5 µM, the “activity against influenza B virus by EC90/SI90 criteria” value ([10]; MDCK, 90% viability criteria) was “not against influenza B virus” and the “SI50 Lee” value [10] was over 95.7. For the same compound, the EC50 [4] was 6.2 ± 1.1 µM, the EC90 [4] was 10.6 ± 0.8 µM and the viability at 10 µM [4] was over 50%.
For `Nc1ccn([C@@H]2O[C@H](CO)[C@@H](O)C2(F)F)c(=O)n1` [Gemcitabine, 2′,2′-difluoro-2′-deoxycytidine], the “SI50 HK” value [1] was over 883.5, the EC50 [5, 26] was 0.3 to 0.7 µM and the “recovery of viability of virus-infected cells with 90% cutoff” value ([5]; MDCK, day 3) was “failed to reach cell viability above 90%; also recorded: failed to recover over 90% cell viability”. The “SI50 against influenza viruses” value [5] was “above 464.8”, the “toxicity after oral administration” value [20] was “liver necrosis-mediated lethal hepatotoxicity” and the EC50 [8] was 0.6 µM. The viability at 10 µM [8] was over 50%, the CC50 at 3 days [2] was over 300 µM and the “cytotoxicity at a higher concentration” value ([3]; 100 μM, MDCK, data not shown) was “severe cytotoxicity”. The “concentrations at which MDCK cell viability gradually decreased” value ([3]; incubation of MDCK cells) was “above 3.3 μM”, the CC10 [3] was 5.0 ± 0.3 µM and the CC10 ([3]; listed as gemcitabine) was 5.0 µM. For the same compound, the EC50 [10, 24] was 0.7 µM, the EC50 ([10]; MDCK, MOI 0.001, day 3, read-out: EC50 Lee) was 0.4 µM and the “suppression of Caco-2 cancer cell proliferation” value [21] was 40–50%. It also gave an EC50 [4] of 0.3 µM and a viability at 10 µM [4] of over 50%.
For `CCC(CC)COC(=O)[C@H](C)N[P@](=O)(OC[C@H]1O[C@@](C#N)(c2ccc3c(N)ncnn23)[C@H](O)[C@@H]1O)Oc1ccccc1` [Remdesivir, reference compound], the “SI SARS-CoV-2” value [15] was over 129.0.
For `NC(=O)c1ncn([C@@H]2O[C@H](CO)[C@@H](O)[C@H]2O)n1` [Ribavirin, reference compound], the EC50 [8] was 20.1 µM, the EC90 [8] was 79.4 µM and the CC50 at 3 days [2] was over 300 µM. For the same compound, the EC50 [10, 24] was 11.1 ± 0.1 µM, the EC90 ([10]; Influenza B virus, MDCK, 72 h) was 141 ± 18.3 µM and the EC50 [4] was 20.4 µM. It also gave an EC90 [4] of 59.5 µM.

From PMC10081574, “Evaluation of Antiviral Activity of Gemcitabine Derivatives against Influenza Virus and Severe Acute Respiratory Syndrome Coronavirus 2” (ACS Infectious Diseases, 2023)
